Assay results: US8410116B2, “Bis(styryl)pyrimidine or bis(styryl)benzene compounds, pharmaceutically acceptable salts thereof, preparation method thereof, and pharmaceutical composition for prevention or treatment of diseases featuring amyloids comprising the same as an active ingredient” (Korea Institute of Science and Technology, priority 2009, dated 2013)

Assays:
[1] = molecular target: beta amyloid (1-42) (Homo sapiens, UniProt P05067); assay: Inhibitory activity against beta amyloid fibril formation (ThT fluorescence); type: biochemical; conditions: for remaining activity at 10 µM: compound 10 μM, beta amyloid (1-42) 25 μM, 1 hr room temperature, beta amyloid alone (control) = 100
Experimental: The compounds of the present invention were assayed for inhibitory activity against the formation of beta amyloid fibrils as a function of ThT fluorescence intensity as follows. Beta amyloid (1-42) and each of the compounds of Examples 1 to 27 were dissolved in DMSO and diluted with PBS (phosphate-buffered saline, pH 7.4). The final concentrations of beta amyloid (1-42) (control) and each of the compounds of Examples 1 to 27 were set at 25 μM and 10 μM, respectively. The dilutions were incubated at room temperature for 1 hr before a solution of thioflavin T (ThT, 5 μM, pH 8.5) in glycin-NaOH buffer was added thereto. Fluorescence was measured at 450 nm for excitation (slit 10 nm) and […] for emission (slit 10 nm) on 96-well microplates using a multilabel fluorescence counter.

[2] = tested on: HT-22 cells; assay: Cytotoxicity in HT-22 cell (MTT); type: cell-based, murine; conditions: compound 25 μM, 18 hrs
Experimental: The following experiment was performed with HT-22 cells in order to examine the cytotoxicity of the compounds of the Examples in accordance with the present invention.
(§1) The murine hippocampal neuronal cell line HT-22 was incubated at 37° C. in DMEM (Dulbecco's Modified Eagle's Medium) supplemented with 10% FBS (fetal bovine serum) and 1% penicillin/streptomycin in a 5% CO2 incubator. Before testing, HT-22 cells were seeded at a density of 5×10^3 cells/well onto 96-well plates containing serum-free DMEM and incubated for 1 hr. Afterwards, each of the compounds of Examples 1 to 27 was added at a concentration of 25 μM to each well before incubation for 18 hrs. 5 mg/ml MTT (3-(4,5-dimethyl-2-thiozolyl)-2,5-diphenyl-2H-tetrazolium bromide) solution was added in an amount of 15 μl per well and incubated for 4 hrs. A solubilization solution (10% SDS, 50% dimethylformamide, pH 4.7) was added in an amount of 100 μl to each well, followed by incubation for 18 hrs. Absorbance at 570 nm/630 nm was read on a microplate reader.

[3] = tested on: HT-22 cells incubated with beta amyloid (Aβ25-35); assay: Alleviating effect on beta amyloid toxicity in HT-22 cells (MTT); type: cell-based, murine; conditions: Mus musculus, compound pre-incubated 1 hr, then 25 μM beta amyloid (Aβ25-35) for 18 hrs, Aβ25-35 line = toxin alone, read-out: Cell Survival (%)
Experimental: as §1
The following experiment was performed in order to examine the ability of the compounds of the Examples in accordance with the present invention to alleviate beta amyloid toxicity. HT-22 cells were cultured and incubated with the compounds of Examples 1 to 27 for 1 hr in the same manner as in Example 2. Cell necrosis was induced by beta amyloid toxicity. For this, the cells were incubated with 25 μM of beta amyloid (Aβ25-35) for 18 hrs. Subsequently, a 5 mg/ml MTT solution was added in an amount of 15 μl to each well, followed by incubation for 4 hrs. Then, the cells were again incubated for 18 hrs with 100 μl/well of the solubilization solution. Absorbance at 570 nm/630 nm was read on a microplate reader.

Chain of beta amyloid (1-42) (P05067 672-713 limits assumed): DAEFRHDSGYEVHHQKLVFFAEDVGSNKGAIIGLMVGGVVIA

| Structure (SMILES) | remaining activity at 10 µM [1] [%] | Inhibitory activity against fibril formation (in words) ([1]; Table 3) | Cell Survival (%) [2] [%] | viability at 25 µM [3] [%] |
| --- | --- | --- | --- | --- |
| Oc1ccc(/C=C/c2cc(/C=C/c3ccc(O)cc3)ncn2)cc1 [Ex. 4, (E,E)-4,6-bis(4′-hydroxystyryl)pyrimidine] | 35.7 ± 7 | – | 104.2 ± 7.1 | 81 ± 1.2 |
| Oc1cccc(/C=C/c2cc(/C=C/c3cccc(O)c3)ncn2)c1 [Ex. 5, (E,E)-4,6-bis(3′-hydroxystyryl)pyrimidine] | 85.9 ± 19.7 | – | 142.5 ± 5.6 | 43.5 ± 13.4 |
| CSc1nc(/C=C/c2ccc(O)cc2)cc(/C=C/c2ccc(O)cc2)n1 [Ex. 14, 2-methylthio-(E,E)-4,6-bis(4′-hydroxystyryl)pyrimidine] | 32.6 ± 7.4 | – | 65.3 ± 6.0 | 34.2 ± 4 |
| CSc1nc(/C=C/c2cccc(O)c2)cc(/C=C/c2cccc(O)c2)n1 [Ex. 15, 2-methylthio-(E,E)-4,6-bis(3′-hydroxystyryl)pyrimidine] | 153 ± 16.3 | – | 43.7 ± 6.6 | 39.6 ± 0.4 |
| CSc1nc(/C=C/c2ccc(N(C)C)c(O)c2)cc(/C=C/c2ccc(N(C)C)c(O)c2)n1 [Ex. 19, 2-methylthio-(E,E)-4,6-bis[3′-hydroxy-4′-(N,N-dimethylamino)styryl]pyrimidine] | 11.2 ± 4.2 | – | 85.3 ± 8.1 | 69.7 ± 0.4 |
| CSc1nc(/C=C/c2ccc(O)c(N(C)C)c2)cc(/C=C/c2ccc(O)c(N(C)C)c2)n1 [Ex. 18, 2-methylthio-(E,E)-4,6-bis[4′-hydroxy-3′-(N,N-dimethylamino)styryl]pyrimidine] | 21.4 ± 10.3 | – | 77.3 ± 15.1 | 50.9 ± 5.7 |
| COc1nc(/C=C/c2ccc(N(C)C)c(O)c2)cc(/C=C/c2ccc(N(C)C)c(O)c2)n1 [Ex. 13, 2-methoxy-(E,E)-4,6-bis[3′-hydroxy-4′-(N,N-dimethylamino)styryl]pyrimidine] | 9.6 ± 3.7 | remarkable inhibitory activity | 101.4 ± 2.5 | 67.4 ± 5.1 |
| COc1nc(/C=C/c2ccc(O)c(N(C)C)c2)cc(/C=C/c2ccc(O)c(N(C)C)c2)n1 [Ex. 12, 2-methoxy-(E,E)-4,6-bis[4′-hydroxy-3′-(N,N-dimethylamino)styryl]pyrimidine] | 25.9 ± 7.3 | – | 96.6 ± 13.7 | 59 ± 5.7 |
| COc1nc(/C=C/c2ccc(O)cc2)cc(/C=C/c2ccc(O)cc2)n1 [Ex. 8, 2-methoxy-(E,E)-4,6-bis(4′-hydroxystyryl)pyrimidine] | 32.6 ± 7.3 | – | 101.2 ± 31.8 | 100 ± 7 |

Now from value to molecule, other results behind:

| remaining activity at 10 µM [1] [%] | Inhibitory activity against fibril formation (in words) ([1]; Table 3) | Structure (SMILES) | Cell Survival (%) [2] [%] | viability at 25 µM [3] [%] |
| --- | --- | --- | --- | --- |
| 16.7 ± 0.7 | – | CN(C)c1ccc(/C=C/c2cc(O)cc(/C=C/c3ccc(N(C)C)c(O)c3)c2)cc1O [Ex. 27, (E,E)-3,5-bis[3′-hydroxy-4′-(N,N-dimethylamino)styryl]phenol] | 64.4 ± 4.2 | 50.5 ± 3.9 |
| 25.8 ± 5.8 | – | CN(C)c1cc(/C=C/c2cc(O)cc(/C=C/c3ccc(O)c(N(C)C)c3)c2)ccc1O [Ex. 26, (E,E)-3,5-bis[4′-hydroxy-3′-(N,N-dimethylamino)styryl]phenol] | 66.0 ± 12.1 | 47.4 ± 0.6 |
| 44 ± 8.3 | – | CN(C)c1ccc(/C=C/c2cccc(/C=C/c3ccc(N(C)C)c(O)c3)c2)cc1O [Ex. 21, (E,E)-1,3-bis[3′-hydroxy-4′-(N,N-dimethylamino)styryl]benzene] | 100.8 ± 7.6 | 52.8 ± 7.2 |
| 129 ± 11.6 | – | COc1nc(/C=C/c2cccc(O)c2)cc(/C=C/c2cccc(O)c2)n1 [Ex. 9, 2-methoxy-(E,E)-4,6-bis(3′-hydroxystyryl)pyrimidine] | 45.9 ± 4.2 | 47.7 ± 3.3 |
| 36.1 ± 10.1 | – | CN(C)c1cc(/C=C/c2cccc(/C=C/c3ccc(O)c(N(C)C)c3)c2)ccc1O [Ex. 20, (E,E)-1,3-bis[4′-hydroxy-3′-(N,N-dimethylamino)styryl]benzene] | 95.7 ± 8.3 | 45.8 ± 9.1 |
| 24.8 ± 11.1 | – | COc1ccc(/C=C/c2cc(/C=C/c3ccc(OC)c(O)c3)nc(SC)n2)cc1O [Ex. 17, 2-methylthio-(E,E)-4,6-bis(3′-hydroxy-4′-methoxystyryl)pyrimidine] | 78.8 ± 9.3 | 78.3 ± 0.4 |
| 32.4 ± 12.5 | – | COc1cc(/C=C/c2cc(/C=C/c3ccc(O)c(OC)c3)nc(SC)n2)ccc1O [Ex. 16, 2-methylthio-(E,E)-4,6-bis(4′-hydroxy-3′-methoxystyryl)pyrimidine] | 79.0 ± 7.9 | 49 ± 4.2 |
| 21 ± 2.4 | – | COc1cc(/C=C/c2cc(O)cc(/C=C/c3ccc(O)c(OC)c3)c2)ccc1O [Ex. 24, (E,E)-3,5-bis(4′-hydroxy-3′-methoxystyryl)phenol] | 80.9 ± 13.1 | 39.9 ± 9.5 |
| 15.5 ± 3.8 | – | COc1ccc(/C=C/c2cc(O)cc(/C=C/c3ccc(OC)c(O)c3)c2)cc1O [Ex. 25, (E,E)-3,5-bis(3′-hydroxy-4′-methoxystyryl)phenol] | 73.5 ± 14.1 | 43.2 ± 10 |
| 45 ± 9.2 | – | COc1nc(/C=C/c2ccc(OC)c(O)c2)cc(/C=C/c2ccc(OC)c(O)c2)n1 [Ex. 11, 2-methoxy-(E,E)-4,6-bis(3′-hydroxy-4′-methoxystyryl)pyrimidine] | 98.4 ± 2.7 | 66.2 ± 11.5 |
| 32 ± 11.6 | – | COc1nc(/C=C/c2ccc(O)c(OC)c2)cc(/C=C/c2ccc(O)c(OC)c2)n1 [Ex. 10, 2-methoxy-(E,E)-4,6-bis(4′-hydroxy-3′-methoxystyryl)pyrimidine] | 75.2 ± 12.5 | 71.7 ± 14.8 |
| 19.3 ± 1.1 | – | Oc1ccc(/C=C/c2cc(O)cc(/C=C/c3ccc(O)cc3)c2)cc1 [Ex. 22, (E,E)-3,5-bis(4′-hydroxystyryl)phenol] | 37.4 ± 4.7 | 50.6 ± 10.1 |
| 92.9 ± 12.4 | – | Oc1cccc(/C=C/c2cc(O)cc(/C=C/c3cccc(O)c3)c2)c1 [Ex. 23, (E,E)-3,5-bis(3′-hydroxystyryl)phenol] | 59.2 ± 15.4 | 47.7 ± 11.1 |
| 32.1 ± 1.1 | – | COc1ccc(/C=C/c2cccc(/C=C/c3ccc(OC)c(O)c3)c2)cc1O [Ex. 3, (E,E)-1,3-Bis(3′-hydroxy-4′-methoxystyryl)benzene] | 69.5 ± 4.2 | 54.7 ± 5.3 |
